Assay results as given in publication PMC9320628, “Analysis of Structural Determinants of Peptide MS 9a-1 Essential for Potentiating of TRPA1 Channel” (Marine Drugs, 2022).
Where two headings read alike, the source gives them in different places. Where a SMILES comes first, the peptide text is derived from it. Bridges are numbered along the chain shown (N, C = ends).

Experiments:
[1] = target: T1, rat TRPA1 (Q6RI86) channel (Rattus norvegicus, UniProt Q6RI86); assay: Potentiation of diclofenac-induced TRPA1 currents, two-electrode recordings in Xenopus laevis oocytes; assay type: cell-based; conditions: for Diclofenac-induced inward current potentiated up to (maximal, % of control) / EC50 / Diclofenac-induced outward current potentiated up to (maximal, % of control): oocytes expressing rat TRPA1, diclofenac 300 μM; for EC50: Ca2+-free solution, 22–24 °C, mean ± SD of 4–7 measurements, SD; for Maximal potentiating effect lower than that of Ms 9a-1: compared to Ms 9a-1, inward and outward currents
T1 construct: expressed in transfected cells; host or cells: Xenopus laevis oocytes injected with cRNA
Experimental: Peptide activity was measured in Xenopus laevis oocytes, heterologously expressing the TRPA1 channel (Figure 2 and Figure S2). Recordings occurred in repeated 4 s pulses of voltage ramp from −100 mV to 100 mV over 200 ms, whereby inward current was measured at −100 mV and outward at 100 mV.
Oocytes expressing rat TRPA1 (Q6RI86) channel were prepared as described previously. Experiments were approved by the Institutional Animal Care and Use Committee (IACUC) of the Shemyakin–Ovchinnikov Institute of Bioorganic Chemistry Russian Academy of Sciences (Protocol Number 267/2018; date of approval: 28 February 2019). Female frogs were anaesthetized with 0.17% solution of tricaine methane sulfonate (MS222) and oocytes were surgically removed. cRNA was synthesized using a HiScribe™ T7 High Yield RNA Synthesis Kit (New England Biolabs, Ipswich, MA, USA) according to the manufacturers’ protocol for capped transcripts and then injected in X. laevis oocytes. The oocytes were kept for 2–7 days at 16–17 °C in sterile ND-96 medium (96 mM NaCl, 2 mM KCl, 1.8 mM CaCl2, 1 mM MgCl2, 5 mM HEPES, pH 7.4) supplemented with 50 μg/mL gentamycin. Electrophysiological recordings were carried out at room temperature (22–24 °C) in Ca^2+-free solution (96 mM NaCl, 2 mM KCl, 1 mM MgCl2, 5 mM HEPES, pH 7.4) using the GeneClamp500 amplifier (Axon Instruments, Union City, CA, USA) at a holding potential of −50 mV. The data were filtered at 20 Hz and digitized at 100 Hz by an AD converter L780 (LCard, Moscow, Russia) using in-house software. Oocytes were impaled with two glass microelectrodes filled with 3 M KCl. Inward/outward currents were recorded at repeated every 4 seconds a stimuli comprising step from holding potential to −100 mV for 80 ms followed by voltage ramp from −100 mV to +100 mV for 200 ms and final step to holding potential. Diclofenac (300 μM in Ca^2+-free solution) was used to activate the channel.

[2] = cited from earlier work
Text: We compared the efficacy of peptides Ms 9a-1, C-Ms, N-Ms, Ms 9a-2, and Ms 9a-3 in models of AITC- ...

TRPA1-expressing oocytes = conditions: cited from earlier work
Experimental: Oocytes expressing rat TRPA1 (Q6RI86) channel were prepared as described previously. Experiments were approved by the Institutional Animal Care and Use Committee (IACUC) of the Shemyakin–Ovchinnikov Institute of Bioorganic Chemistry Russian Academy of Sciences (Protocol Number 267/2018; date of approval: 28 February 2019). Female frogs were anaesthetized with 0.17% solution of tricaine methane sulfonate (MS222) and oocytes were surgically removed. cRNA was synthesized using a HiScribe™ T7 High Yield RNA Synthesis Kit (New England Biolabs, Ipswich, MA, USA) according to the manufacturers’ ...

[3] = inward current at −100 mV, read-out: EC50 of potentiation of diclofenac-induced inward TRPA1 current
[4] = outward current at +100 mV, read-out: EC50 of potentiation of diclofenac-induced outward TRPA1 current

T1 sequence (Q6RI86 whole entry): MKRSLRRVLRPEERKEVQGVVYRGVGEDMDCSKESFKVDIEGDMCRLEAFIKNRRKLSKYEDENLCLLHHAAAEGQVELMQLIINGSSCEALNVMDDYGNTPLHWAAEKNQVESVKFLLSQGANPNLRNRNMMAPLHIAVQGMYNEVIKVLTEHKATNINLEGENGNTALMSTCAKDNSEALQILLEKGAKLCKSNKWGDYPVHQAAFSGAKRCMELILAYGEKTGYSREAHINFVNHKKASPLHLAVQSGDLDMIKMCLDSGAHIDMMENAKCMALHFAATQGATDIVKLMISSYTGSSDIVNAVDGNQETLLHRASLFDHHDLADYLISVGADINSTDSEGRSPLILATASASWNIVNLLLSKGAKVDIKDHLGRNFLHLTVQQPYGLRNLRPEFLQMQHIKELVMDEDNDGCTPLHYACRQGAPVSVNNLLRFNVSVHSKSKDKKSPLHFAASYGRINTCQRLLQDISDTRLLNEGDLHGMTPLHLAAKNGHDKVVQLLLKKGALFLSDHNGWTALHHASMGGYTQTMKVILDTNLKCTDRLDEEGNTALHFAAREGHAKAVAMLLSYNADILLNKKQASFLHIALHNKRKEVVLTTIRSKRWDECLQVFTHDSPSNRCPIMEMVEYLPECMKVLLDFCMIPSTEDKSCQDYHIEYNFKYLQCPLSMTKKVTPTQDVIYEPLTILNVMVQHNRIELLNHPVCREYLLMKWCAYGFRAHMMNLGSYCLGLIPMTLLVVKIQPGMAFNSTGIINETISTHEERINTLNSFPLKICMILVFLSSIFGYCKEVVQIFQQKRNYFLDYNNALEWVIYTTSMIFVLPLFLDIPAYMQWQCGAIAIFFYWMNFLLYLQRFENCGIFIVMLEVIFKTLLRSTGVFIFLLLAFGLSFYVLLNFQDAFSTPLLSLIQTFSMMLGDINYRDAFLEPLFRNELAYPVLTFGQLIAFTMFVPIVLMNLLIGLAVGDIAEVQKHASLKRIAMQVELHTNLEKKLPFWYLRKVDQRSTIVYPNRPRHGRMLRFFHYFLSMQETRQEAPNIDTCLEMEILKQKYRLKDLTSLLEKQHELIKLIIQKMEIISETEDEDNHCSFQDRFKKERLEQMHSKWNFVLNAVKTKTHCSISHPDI

Row | SMILES | Diclofenac-induced inward current potentiated up to (maximal, % of control) ([1]; inward current at −100 mV) [%] | EC50 [1, 3] [nM] | Diclofenac-induced outward current potentiated up to (maximal, % of control) ([1]; outward current at +100 mV) [%] | EC50 [1, 4] [nM] | Pain or thermal hyperalgesia caused in vivo [2] | Maximal potentiating effect lower than that of Ms 9a-1 [1] | Increase of effective concentration (EC50) for inward current compared to Ms 9a-1 ([1]; inward current, relative to Ms 9a-1) [times] | EC50 (TRPA1-expressing oocytes; X. laevis oocytes, read-out: EC50 of current increase in TRPA1-expressing oocytes) [nM] | Effect on uninjected oocytes of X. laevis (TRPA1-expressing oocytes; uninjected oocytes)
1 | CC[C@H](C)[C@@H]1NC(=O)[C@@H](NC(=O)CNC(=O)CNC(=O)[C@@H](NC(=O)[C@@H](NC(=O)[C@@H](NC(=O)[C@@H](N)CC(N)=O)[C@@H](C)CC)[C@@H](C)CC)C(C)C)CSSC[C@@H]2NC(=O)[C@H](CCCNC(=N)N)NC(=O)CNC(=O)[C@H](CO)NC(=O)[C@H](C)NC(=O)[C@H](CC(N)=O)NC(=O)[C@H](CCCCN)NC(=O)[C@H](C(C)C)NC(=O)[C@H](Cc3c[nH]cn3)NC(=O)[C@H](CSSC[C@@H](C(=O)NCC(=O)N[C@H](C(=O)N[C@@H](CC(=O)O)C(=O)N[C@@H](CCCCN)C(=O)N[C@H](C(=O)N3CCC[C@H]3C(=O)N[C@@H](CC(=O)O)C(=O)N[C@@H](CC(C)C)C(=O)N[C@@H](Cc3ccccc3)C(=O)N[C@@H](CO)C(=O)O)C(C)C)C(C)C)NC(=O)CNC(=O)[C@H](C(C)C)NC(=O)[C@H]([C@@H](C)CC)NC(=O)[C@H](CCCNC(=N)N)NC(=O)[C@H](C(C)C)NC2=O)NC(=O)[C@H](CCCCN)NC1=O [Ms 9a-1] (H-NIIVGGCIKCHVKNASGRCVRIVGCGVDKVPDLFS-OH; disulfide 7-19, 10-25) | 190 | 210 ± 3 | 175 | 32 ± 7 | does not cause pain or thermal hyperalgesia |  |  |  | 
2 | CC[C@H](C)[C@@H]1NC(=O)[C@H](CCCNC(=N)N)NC(=O)[C@H](C(C)C)NC(=O)[C@@H]2CSSC[C@H](NC(=O)CNC(=O)CNC(=O)[C@@H](NC(=O)[C@@H](NC(=O)[C@@H](NC(=O)[C@@H](N)CC(N)=O)[C@@H](C)CC)[C@@H](C)CC)C(C)C)C(=O)N[C@@H](CO)C(=O)N[C@@H](CCCCN)C(=O)N[C@@H](CSSC[C@@H](C(=O)NCC(=O)N[C@H](C(=O)O)C(C)C)NC(=O)CNC(=O)[C@H](C)NC1=O)C(=O)N[C@@H](Cc1c[nH]cn1)C(=O)N[C@@H]([C@@H](C)O)C(=O)N[C@@H](CCC(=O)O)C(=O)N[C@@H](CC(=O)O)C(=O)N[C@@H](CO)C(=O)N[C@@H](CC(N)=O)C(=O)NCC(=O)N[C@@H](CC(N)=O)C(=O)N2 [Ms 9a-3] (H-NIIVGGCSKCHTEDSNGNCVRIAGCGV-OH; disulfide 7-19, 10-25) | 159 | 5440 ± 2900 | 175 | 7800 ± 600 |  | 15–30% |  |  | 
3 | CC[C@H](C)[C@@H]1NC(=O)[C@H](CCCNC(=N)N)NC(=O)[C@H](C(C)C)NC(=O)[C@@H]2CSSC[C@H](NC(=O)CNC(=O)CNC(=O)[C@@H](NC(=O)[C@@H](NC(=O)[C@@H](NC(=O)[C@@H](N)CC(N)=O)[C@@H](C)CC)[C@@H](C)CC)C(C)C)C(=O)N[C@@H](CO)C(=O)N[C@@H](CCCCN)C(=O)N[C@@H](CSSC[C@@H](C(=O)NCC(=O)N[C@H](C(=O)O)C(C)C)NC(=O)CNC(=O)[C@H](C)NC1=O)C(=O)N[C@@H](Cc1c[nH]cn1)C(=O)N[C@@H](CCCCN)C(=O)N[C@@H](CCC(N)=O)C(=O)N[C@@H](CC(=O)O)C(=O)N[C@@H](CO)C(=O)N[C@@H](CO)C(=O)NCC(=O)N[C@@H](CC(N)=O)C(=O)N2 [Ms 9a-2] (H-NIIVGGCSKCHKQDSSGNCVRIAGCGV-OH; disulfide 7-19, 10-25) | 139 | 412 ± 48 | 131 | 606 ± 201 |  | 45–50% | 3 |  | 
4 | O=C(O)Cc1ccccc1Nc1c(Cl)cccc1Cl [Diclofenac] |  |  |  |  |  |  |  | 210000 | no effect
